Reference: patent US20200017495A1, “NOVEL HETEROCYCLIC COMPOUNDS AND THEIR USE IN PREVENTING OR TREATING BACTERIAL INFECTIONS” (priority 2017, published 2020)

System: Escherichia coli (ECO) isolates
Assay: MIC of compounds alone and combined with antibacterials, broth microdilution (CLSI)
Format: cell-based
How it was run: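 First, log-phase suspensions are brought to 5.10^5 CFU/mL final in ca-MHB; plates then incubate 16-20 h at 35° C in air. Growth is judged visually, giving the compound MIC alone and the antibacterial MIC at each compound concentration.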

C=CC1=C(C(=O)O)N2C(=O)[C@@H](NC(=O)/C(=N\OCC(=O)O)c3csc(N)n3)[C@H]2SC1 [FIX, Cefixime]
MIC ATB in combination (ECO UFR15, AF3 @ 8 μg/mL): <0.25 µg/mL | MIC ATB in combination (ECO UFR15, CLA @ 4 μg/mL): 1 µg/mL | MIC ATB in combination (ECO UFR16, AF2 @ 8 μg/mL): <0.25 µg/mL | MIC ATB in combination (ECO UFR16, AF3 @ 8 μg/mL): <0.25 µg/mL | MIC ATB in combination (ECO UFR16, CLA @ 4 μg/mL): 4 µg/mL | MIC ATB in combination (ECO UFR17, AF2 @ 8 μg/mL): >128 µg/mL | MIC ATB in combination (ECO UFR17, AF3 @ 8 μg/mL): >128 µg/mL | MIC ATB in combination (ECO UFR17, CLA @ 4 μg/mL): >128 µg/mL | MIC ATB in combination (ECO UFR18, AF2 @ 8 μg/mL): <0.25 µg/mL | MIC ATB in combination (ECO UFR18, AF3 @ 8 μg/mL): <0.25 µg/mL | MIC ATB in combination (ECO UFR18, CLA @ 4 μg/mL): >128 µg/mL | MIC ATB in combination (ECO UFR19, AF2 @ 8 μg/mL): <0.25 µg/mL | MIC ATB in combination (ECO UFR19, AF3 @ 8 μg/mL): <0.25 µg/mL | MIC ATB in combination (ECO UFR19, CLA @ 4 μg/mL): >128 µg/mL | MIC ATB in combination (ECO UFR32, AF2 @ 8 μg/mL): <0.25 µg/mL | MIC ATB in combination (ECO UFR32, AF3 @ 8 μg/mL): <0.25 µg/mL | MIC ATB in combination (ECO UFR32, CLA @ 4 μg/mL): 1 µg/mL | MIC ATB in combination (ECO UFR39, AF2 @ 8 μg/mL): <0.25 µg/mL | MIC ATB in combination (ECO UFR39, AF3 @ 8 μg/mL): <0.25 µg/mL | MIC ATB in combination (ECO UFR39, CLA @ 4 μg/mL): >128 µg/mL | MIC ATB in combination (ECO UFR41, AF2 @ 8 μg/mL): <0.25 µg/mL | MIC ATB in combination (ECO UFR41, AF3 @ 8 μg/mL): <0.25 µg/mL | MIC ATB in combination (ECO UFR41, CLA @ 4 μg/mL): >128 µg/mL | MIC ATB in combination (ECO UFR45, AF2 @ 8 μg/mL): <0.25 µg/mL | MIC ATB in combination (ECO UFR45, AF3 @ 8 μg/mL): <0.25 µg/mL | MIC ATB in combination (ECO UFR45, CLA @ 4 μg/mL): 32 µg/mL | MIC ATB in combination (ECO UFR52, AF2 @ 8 μg/mL): >128 µg/mL | MIC ATB in combination (ECO UFR52, AF3 @ 8 μg/mL): >128 µg/mL | MIC ATB in combination (ECO UFR52, CLA @ 4 μg/mL): >128 µg/mL | MIC ATB in combination (ECO UFR61O, AF2 @ 8 μg/mL): <=0.25 μg/mL | MIC ATB in combination (ECO UFR61O, AF3 @ 8 μg/mL): <0.25 µg/mL | MIC ATB in combination (ECO UFR61O, CLA @ 4 μg/mL): 32 µg/mL | MIC ATB in combination (ECO UFR62, AF2 @ 8 μg/mL): <0.25 µg/mL | MIC ATB in combination (ECO UFR62, AF3 @ 8 μg/mL): <0.25 µg/mL | MIC ATB in combination (ECO UFR62, CLA @ 4 μg/mL): 32 µg/mL | MIC ATB in combination (ECO UFR74, AF2 @ 8 μg/mL): <0.25 µg/mL | MIC ATB in combination (ECO UFR74, AF3 @ 8 μg/mL): <0.25 µg/mL | MIC ATB in combination (ECO UFR74, CLA @ 4 μg/mL): >128 µg/mL | MIC ATB in combination (ECO UFR86, AF2 @ 8 μg/mL): 0.5 µg/mL | MIC ATB in combination (ECO UFR86, AF3 @ 8 μg/mL): 0.5 µg/mL | MIC ATB in combination (ECO UFR86, CLA @ 4 μg/mL): 2 µg/mL | MIC ATB in combination (ECO UFR174, AF2 @ 8 μg/mL): <0.25 µg/mL | MIC ATB in combination (ECO UFR174, AF3 @ 8 μg/mL): <0.25 µg/mL | MIC ATB in combination (ECO UFR174, CLA @ 4 μg/mL): 2 µg/mL | MIC ATB in combination (ECO UFR175, AF2 @ 8 μg/mL): <0.25 µg/mL | MIC ATB in combination (ECO UFR175, AF3 @ 8 μg/mL): <=0.25 μg/mL | MIC ATB in combination (ECO UFR175, CLA @ 4 μg/mL): 16 µg/mL | MIC ATB in combination (ECO UFR176, AF2 @ 8 μg/mL): <0.25 µg/mL | MIC ATB in combination (ECO UFR176, AF3 @ 8 μg/mL): <0.25 µg/mL | MIC ATB in combination (ECO UFR176, CLA @ 4 μg/mL): 32 µg/mL | MIC ATB in combination (ECO UFR184, AF2 @ 8 μg/mL): <0.25 µg/mL | MIC ATB in combination (ECO UFR184, AF3 @ 8 μg/mL): <0.25 µg/mL | MIC ATB in combination (ECO UFR184, CLA @ 4 μg/mL): >128 µg/mL | MIC ATB in combination (ECO UFR208, AF2 @ 8 μg/mL): >128 µg/mL | MIC ATB in combination (ECO UFR208, AF3 @ 8 μg/mL): >128 µg/mL | MIC ATB in combination (ECO UFR208, CLA @ 4 μg/mL): >128 µg/mL | MIC ATB in combination (ECO UFR209, AF2 @ 8 μg/mL): <0.25 µg/mL | MIC ATB in combination (ECO UFR209, AF3 @ 8 μg/mL): <0.25 µg/mL | MIC ATB in combination (ECO UFR209, CLA @ 4 μg/mL): 1 µg/mL | MIC ATB in combination (ECO UFR210, AF2 @ 8 μg/mL): <0.25 µg/mL | MIC ATB in combination (ECO UFR210, AF3 @ 8 μg/mL): <0.25 µg/mL | MIC ATB in combination (ECO UFR210, CLA @ 4 μg/mL): 0.5 µg/mL | MIC ATB in combination (ECO UFR211, AF2 @ 8 μg/mL): <0.25 µg/mL | MIC ATB in combination (ECO UFR211, AF3 @ 8 μg/mL): <0.25 µg/mL | MIC ATB in combination (ECO UFR211, CLA @ 4 μg/mL): 2 µg/mL | MIC ATB in combination (ECO UFR212, AF2 @ 8 μg/mL): <0.25 µg/mL | MIC ATB in combination (ECO UFR212, AF3 @ 8 μg/mL): <0.25 µg/mL | MIC ATB in combination (ECO UFR212, CLA @ 4 μg/mL): >128 µg/mL | MIC ATB in combination (ECO URF20, AF2 @ 8 μg/mL): <=0.25 μg/mL | MIC ATB in combination (ECO URF20, AF3 @ 8 μg/mL): 2 µg/mL | MIC ATB in combination (ECO URF20, CLA @ 4 μg/mL): >128 µg/mL | MIC (strain ECO 4133, genotype TEM-30, OXA-1): 0.5 µg/mL | MIC (strain ECO 5302, genotype TEM-1, OXA-1): 0.5 µg/mL | MIC (strain ECO 131119, genotype TEM-1, OXA-48): <=0.25 μg/mL | MIC (strain ECO 180070, genotype TEM-1, CTX-M-15): 128 µg/mL | MIC (strain ECO 190314, genotype CTX-M-1): 16 µg/mL | MIC (strain ECO 190317, compound alone): >128 µg/mL | MIC (strain ECO 190317, genotype TEM-1, SHV-12, CTX-M-15, OXA-1): >128 µg/mL | MIC (strain ECO 190457, compound alone): 128 µg/mL | MIC (strain ECO 190457, genotype CTX-M-15, OXA-1): 128 µg/mL | MIC (strain ECO 190549, genotype CTX-M-1): 16 µg/mL | MIC (strain ECO 200159, genotype TEM-1, CTX-M-14): 8 µg/mL | MIC (strain ECO 200259, genotype CTX-M-14): 8 µg/mL | MIC (strain ECO 200344, genotype CTX-M-1): 32 µg/mL | MIC (strain ECO 260096, genotype CTX-M-132): >128 µg/mL | MIC (strain ECO 260304, genotype CTX-M-15): 32 µg/mL | MIC (strain ECO 260508, genotype TEM-1, CTX-M-15, OXA-1): >128 µg/mL | MIC (strain ECO RGN238, genotype OXA-1): <=0.25 μg/mL | MIC (strain ECO UFR15, genotype TEM-1, OXA-48): 1 µg/mL | MIC (strain ECO UFR16, compound alone): >128 µg/mL | MIC (strain ECO UFR16, genotype TEM-1, CTX-M-15, OXA-1, OXA-48): >128 µg/mL | MIC (strain ECO UFR17, genotype TEM-1, CTX-M-15, CMY-2, OXA-1, OXA-181): >128 µg/mL | MIC (strain ECO UFR18, genotype CTX-M-15, OXA-204): >128 µg/mL | MIC (strain ECO UFR19, genotype CTX-M-15, CMY-2, OXA-1, OXA-204): >128 µg/mL | MIC (strain ECO UFR20, compound alone): 512 µg/mL | MIC (strain ECO UFR20, genotype SHV-1, CTX-M-15, OXA-1, OXA-232): 512 µg/mL | MIC (strain ECO UFR32, genotype TEM-1, VEB-1, OXA-10): 128 µg/mL | MIC (strain ECO UFR39, genotype CTX-M-15, NDM-1): >128 µg/mL | MIC (strain ECO UFR41, genotype TEM-1, CTX-M-15, CMY-2, OXA-1, NDM-4): >128 µg/mL
